Laboratory results: PubChem BioAssay (NCI)
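In this assay, cells in 96-well plates receive the compound at five concentrations for 48 hours. Endpoints are linearly interpolated between the surrounding concentrations. At the TGI there is no net growth.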

Legend:
Test in all cases: inhibition of tumour cell growth, NCI panel, 48 h
[1] = tested on: OVCAR-5 ovarian
[2] = tested on: DLD-1 colon
[3] = tested on: DMS 114 small cell lung
[4] = tested on: DMS 273 small cell lung
[5] = tested on: HOP-18 NSCLC
[6] = tested on: KM20L2 colon
[7] = tested on: LXFL 529 NSCLC
[8] = tested on: M19-MEL melanoma
[9] = tested on: RXF-631 renal
[10] = tested on: SNB-78 CNS
[11] = tested on: XF 498 CNS

Structure (SMILES): CC(=O)OCC1OC(N2C(c3ccccc3)=CC(c3ccccc3)C(C#N)=C2S)C(OC(C)=O)C(OC(C)=O)C1OC(C)=O (configuration not stated)
- TGI [1]: > 100 µM

Structure (SMILES): COc1ccc(-c2c(C(C)=O)c(-c3ccccc3)n(C3OC(COC(C)=O)C(OC(C)=O)C(OC(C)=O)C3OC(C)=O)c(=S)c2C#N)cc1 (configuration not stated)
- TGI [1]: > 100 µM

Structure (SMILES): CCOC(=O)C(Cl)(NC(=O)c1ccc(F)cc1)C(F)(F)F (configuration not stated)
- TGI [1]: > 100 µM

Structure (SMILES): CCOc1cc(NC(C)=O)ccc1C(=O)NN1C(=O)C(Oc2ccccc2)C1c1ccc(O)c(OC)c1 (configuration not stated)
- TGI [1]: > 100 µM

Structure (SMILES): CCCN(CCCCC(NC(C)=O)C(=O)NCc1ccccc1)C(=O)N(CCCl)N=O (configuration not stated)
- TGI [2]: > 100 µM
- TGI [3]: > 100 µM
- TGI [4]: > 100 µM
- TGI [5]: > 100 µM
- TGI [6]: > 100 µM
- TGI [7]: > 100 µM
- TGI [8]: > 100 µM
- TGI [1]: > 100 µM
- TGI [9]: > 100 µM
- TGI [10]: > 100 µM
- TGI [11]: > 100 µM

Structure (SMILES): CN(C)/N=C(\CCN1CCCC1)CC(c1ccccc1)c1c(O)c2ccccc2oc1=O (configuration not stated)
- TGI [2]: > 100 µM
- TGI [6]: > 100 µM
- TGI [7]: > 100 µM
- TGI [8]: > 100 µM
- TGI [1]: > 100 µM
- TGI [11]: > 100 µM

Structure (SMILES): C1=C2C3=[N+](CCCC3)CC2Cc2ccsc21 (configuration not stated)
- TGI [1]: > 100 µM

Structure (SMILES): O=c1[nH]nc(-c2cccc(Br)c2)[nH]1
- TGI [1]: > 100 µM

Structure (SMILES): CO/N=C(\C(=O)Nc1cncs1)c1csc(NC(c2ccccc2)(c2ccccc2)c2ccccc2)n1
- TGI [1]: > 10 µM

Structure (SMILES): Brc1ccc2c(-c3nc(-c4c[nH]c5ccc(Br)cc45)cs3)c[nH]c2c1
- TGI [1]: 10.4 µM

Structure (SMILES): c1ccc2c(c1)nc1n2CNCC1
- TGI [1]: > 100 µM

Structure (SMILES): N#Cc1nc(COCCOCc2ccccc2)oc1N
- TGI [1]: > 100 µM

Structure (SMILES): COC(=O)CCC(=O)NC1c2cccc3cccc(c23)Cn2c(=O)n(C)c(=O)n21 (configuration not stated)
- TGI [1]: > 100 µM

Structure (SMILES): COc1cc(C2c3cc4c(cc3[C@H](OCCN(C)C)[C@@H]3COC(=O)C23)OCO4)cc(OC)c1O (some centres not stated)
- TGI [2]: 3.96 µM
- TGI [4]: 1.31 µM
- TGI [5]: > 100 µM
- TGI [6]: 2.98 µM
- TGI [7]: 28 µM
- TGI [8]: 4.79 µM
- TGI [1]: 3.82 µM
- TGI [9]: 1.07 µM
- TGI [10]: > 93.2 µM
- TGI [11]: 1.88 µM

Structure (SMILES): Cc1nnc([C@@]2(C)CC[C@H]3[C@@H](CC=C4C[C@@H](O)CC[C@@]43C)[C@@H]2CC#N)o1
- TGI [1]: > 100 µM

Structure (SMILES): CCOC(=O)N/N=C(/N)Cc1ccccc1
- TGI [1]: > 100 µM

Structure (SMILES): NC(N)=N/N=C/c1c(Cl)nc2sccn12
- TGI [1]: 80.9 µM

Structure (SMILES): C=C1CC[C@@]2(OC1)OC1C[C@H]3[C@@H]4CC=C5C[C@@H](O)CC(OC6OCC(OC(=O)[C@@H](O)[C@@H](C)CC)C(OC(C)=O)C6OC6OC(C)C(O)C(O)C6O)[C@]5(C)[C@H]4CC[C@]3(C)C1[C@@H]2C (some centres not stated)
- TGI [1]: 4.89 µM

Structure (SMILES): CC[C@@H]1/C=C/C=C/C[C@H](C)[C@@H](O)[C@](C)(O)C(=O)[C@H](C)[C@@H](O)[C@H](C)C(=O)[C@H](C)[C@@H](O)[C@H](C)/C=C/C(=O)O[C@H]2[C@@H](C)[C@@H](CC1)O[C@]1(O[C@H](CC(C)O)[C@H](C)CC1=O)[C@@H]2C (some centres not stated)
- TGI [1]: 8.25 µM

Structure (SMILES): Cc1oc2nc(N(C)C)nc(Cl)c2c1C
- TGI [1]: > 100 µM

Structure (SMILES): CSc1nc(Cl)c2c(n1)Sc1nc3cc4c(cc3n1C2O)OCO4 (configuration not stated)
- TGI [1]: > 100 µM

Structure (SMILES): CCC1c2[nH]c3ccccc3c2C[C@H]2C(=O)NC(CCC(=O)OC(C)(C)C)C(=O)N12 (some centres not stated)
- TGI [1]: > 100 µM

Structure (SMILES): COc1cc2c(c(OC)c1OC)-c1ccc(SC)c(=O)cc1C(CC(=O)Oc1ccc([N+](=O)[O-])cc1)C2 (configuration not stated)
- TGI [2]: 8.69 µM
- TGI [3]: 0.677 µM
- TGI [4]: > 36.9 µM
- TGI [5]: > 48.9 µM
- TGI [6]: 0.465 µM
- TGI [7]: > 34.6 µM
- TGI [8]: 36.9 µM
- TGI [1]: > 100 µM
- TGI [9]: 0.052 µM
- TGI [10]: 41 µM
- TGI [11]: 4.73 µM

Structure (SMILES): CC(=O)NNc1nc(C)c(C(/C=C/c2cccc([N+](=O)[O-])c2)=N/NC(=S)NN)s1
- TGI [1]: > 100 µM

Structure (SMILES): CCOC(=O)C(=C(SC)SC)c1nn2c(=O)cc(C)nc2s1
- TGI [1]: 67.2 µM

Structure (SMILES): O=[N+]([O-])C(C(Cl)=C(Cl)Cl)=C(N1CCOCC1)N1CCOCC1
- TGI [1]: > 100 µM

Structure (SMILES): O=P(O)(O)CN1CCN(CP(=O)(O)O)CCN(CP(=O)(O)O)CCN(CP(=O)(O)O)CC1
- TGI [1]: > 100 µM

Structure (SMILES): O=C(CNc1ccc(Cl)cc1)Nn1c(-c2ccccc2)nc2ccccc2c1=O
- TGI [1]: 28.2 µM

Structure (SMILES): CCOC(=O)CC(NC(=O)c1nc[nH]c1[N+](=O)[O-])C(=O)OCC (configuration not stated)
- TGI [2]: > 100 µM
- TGI [3]: > 100 µM
- TGI [4]: > 100 µM
- TGI [7]: > 100 µM
- TGI [8]: > 100 µM

Structure (SMILES): C=C(C)[C@@H](C(=O)OC)N1C(=O)c2ccccc2C1=O
- TGI [1]: > 100 µM

Structure (SMILES): Clc1cccc(Cl)c1C1SCC2=Nc3ccccc3CN21 (configuration not stated)
- TGI [1]: > 100 µM

Structure (SMILES): N#CCCN(CCC#N)c1ccc(C(=O)NN)cc1
- TGI [2]: > 100 µM
- TGI [3]: > 100 µM
- TGI [4]: > 100 µM
- TGI [5]: > 100 µM
- TGI [6]: > 100 µM
- TGI [7]: > 100 µM
- TGI [8]: > 100 µM
- TGI [1]: > 100 µM
- TGI [9]: > 100 µM
- TGI [10]: > 100 µM
- TGI [11]: > 100 µM

Structure (SMILES): COc1ccc2c(c1)OCc1c-2oc2ccccc2c1=O
- TGI [1]: > 100 µM

Structure (SMILES): Cc1nc(N)c(N2CCNCC2)c(=O)[nH]1
- TGI [1]: > 100 µM

Structure (SMILES): Cc1[nH]c(=O)[nH]c(=S)c1C(=O)NC(C)(CO)CO
- TGI [1]: > 100 µM

Structure (SMILES): CC(=O)OC1CC2OC(Cc3ccccc32)O1 (configuration not stated)
- TGI [2]: > 100 µM
- TGI [3]: > 100 µM
- TGI [4]: > 100 µM
- TGI [5]: 94.9 µM
- TGI [6]: > 100 µM
- TGI [7]: > 100 µM
- TGI [8]: > 100 µM
- TGI [10]: > 100 µM
- TGI [11]: > 100 µM
